Where two headings read alike, the source gives them in different places.
What was measured:
[1] = system: Tufts University TU502 C. hominis; details: Cryptosporidium hominis, HCT-8
C. parvum = details: Cryptosporidium parvum
[2] = system: UGA1 N-luciferase expressing C. parvum; assay: Nluc expressing C. parvum in vitro growth inhibition in infected HCT-8 cells; assay type: cell-based; details: Cryptosporidium parvum
Cryptosporidium = details: 1–5 year old malnourished children; ref Amadi et al., 2002; cited from earlier work
Cryptosporidium parvum = details: oral dosing; ref Hulverson et al., 2017; cited from earlier work
[3] = target: UGA1 N-luciferase expressing C. parvum; details: read-out: EC50 in vitro against C. parvum; ref Hulverson et al., 2017; cited from earlier work
CRL-8155 cells = details: ref Hulverson et al., 2017; cited from earlier work
HepG2 cells = details: ref Hulverson et al., 2017; cited from earlier work

CC(=O)Oc1ccccc1C(=O)Nc1ncc([N+](=O)[O-])s1 [Nitazoxanide, nitazoxanide]
EC50 [1]: 2780 nM
EC50 (C. parvum; HCT-8, Bunch Grass Farm C. parvum, high-content imaging): 1900 nM
EC50 (C. parvum; HCT-8, University of Arizona C. parvum): 1680 nM
EC50 [2]: 3100 nM
Effectiveness in children with cryptosporidiosis (Cryptosporidium): approximately 30%

CCOc1ccc2cc(-c3nn(CC4CCNCC4)c4ncnc(N)c34)ccc2n1 [BKI 1318]
Efficacy when orally dosed in vivo in mice (Cryptosporidium parvum): lacked efficacy
EC50 [3]: 3200 nM
In vitro cytotoxicity (CRL-8155 cells): no toxicity
In vitro cytotoxicity (HepG2 cells): no toxicity
